Results taken from patent US20090215850A1, “METHOD FOR TREATING CB2 RECEPTOR MEDIATED PAIN” (priority 2008, published 2009).

Assays:
CB2 receptor = biological target: T1, CB2 receptor (Rattus norvegicus, UniProt Q9QZN9); conditions: background statement; cited from earlier work
T1 sequence (Q9QZN9 1-360): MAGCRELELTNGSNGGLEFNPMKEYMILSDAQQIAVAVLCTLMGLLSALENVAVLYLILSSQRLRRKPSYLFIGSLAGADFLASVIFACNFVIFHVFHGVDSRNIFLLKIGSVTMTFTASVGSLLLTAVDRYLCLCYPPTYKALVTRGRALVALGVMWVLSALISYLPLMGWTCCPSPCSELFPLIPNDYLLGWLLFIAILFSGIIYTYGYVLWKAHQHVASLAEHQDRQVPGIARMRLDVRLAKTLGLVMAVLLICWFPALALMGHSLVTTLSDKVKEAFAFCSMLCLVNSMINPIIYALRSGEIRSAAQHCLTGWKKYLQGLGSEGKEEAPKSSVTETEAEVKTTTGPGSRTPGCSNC

male Sprague-Dawley rats [1] = experiment: Carrageenan model of inflammatory pain, radiant heat paw withdrawal, compound given 2.5 hr after carrageenan (Example 2); type: in vivo, rat; conditions: 30 min after compound, seconds±SEM
Method: (§1) To assess the ability of test compounds to reverse thermal hyperalgesia, baseline response latencies on a radiant heat (RH) paw stimulator were obtained before an intraplantar injection of carrageenan-λ (200 μL) in male Sprague-Dawley rats (250-350 g in treatment groups of 9 animals each). Only withdrawal responses that were quick hind paw movements (with or without licking of the hind paw) were recorded. Paw movements associated with locomotion or a shifting of weight were not considered a withdrawal response.
(§2) The weight of each animal was recorded on the day of the experiment. Each animal was placed on a warm (approx. body temperature, 30° C.) glass surface and allowed to acclimate to the test chamber for approximately 10-15 minutes. A radiant thermal stimulus (beam of light) was then focused on the sole of each hind paw in turn, and an initial (baseline) response time to thermal stimuli was recorded for each animal. The stimulus intensity (radiant heat at a setting of 5 Amps) that produced 10-15 sec baseline withdrawal latencies was used and a maximum cutoff of 20 sec was imposed. The light stimulus was automatically shut off by a photoelectric relay when the foot moved or when the cut-off time limit was reached.
The experiment of Example 1 is repeated with the exception that animals are first administered 1% carrageenan (200 μL in sterile saline) subcutaneously into the sub-plantar tissue of the left hind paw to stimulate an acute inflammatory reaction.
Two and a half hours later, withdrawal latencies are assessed (‘post-Cg’). One treatment group is then injected i.p. with vehicle (5% DMSO and 5% Tween-80 in sterile saline). The other treatment groups are injected i.p. with 3, 10 or 30 mg/kg of Compound 2. Thirty minutes after test compound administration withdrawal latencies are recorded.

male Sprague-Dawley rats [2] = experiment: Carrageenan model of inflammatory pain, radiant heat paw withdrawal, compound given before carrageenan (Example 1); type: in vivo, rat; conditions: seconds±SEM
Method: Intraplantar injection of carrageenan (Cg) in a rodent produces pronounced hypersensitivity to both thermal and mechanical stimuli. The effects of carrageenan are maximal 2-4 hr after administration.
as §1, §2
One treatment group (8 animals each) was injected i.p. with vehicle (5% DMSO and 5% Tween-80 in sterile saline). The other treatment groups (8 animals each) were injected i.p. with 3, 10 or 30 mg/kg Compound 2.
One hour later, withdrawal latencies for the animals administered vehicle were recorded. After assessment, all animals were administered 1% carrageenan (200 μL in sterile saline) subcutaneously into the sub-plantar tissue of the left hind paw to stimulate an acute inflammatory reaction. Three hours later, the response time of the animals to the thermal stimulus was evaluated.

| Compound | antinociception to thermal stimuli (CB2 receptor) | withdrawal latency, 3 hrs post Cg administration (male Sprague-Dawley rats [1]; 3 mg/kg i.p. 2.5 hr after 1% carrageenan) [s] | withdrawal latency, 3 hrs post Cg administration (male Sprague-Dawley rats [1]; 10 mg/kg i.p. 2.5 hr after 1% carrageenan) [s] | withdrawal latency, 3 hrs post Cg administration (male Sprague-Dawley rats [1]; 30 mg/kg i.p. 2.5 hr after 1% carrageenan) [s] | response time (withdrawal latency) to thermal stimulus, 3 hrs post Cg administration (male Sprague-Dawley rats [2]; 3 mg/kg i.p. 1 hr before 1% carrageenan) [s] | response time (withdrawal latency) to thermal stimulus, 3 hrs post Cg administration (male Sprague-Dawley rats [2]; 10 mg/kg i.p. 1 hr before 1% carrageenan) [s] | response time (withdrawal latency) to thermal stimulus, 3 hrs post Cg administration (male Sprague-Dawley rats [2]; 30 mg/kg i.p. 1 hr before 1% carrageenan) [s] |
| --- | --- | --- | --- | --- | --- | --- | --- |
| CN1CCCCC1Cn1cc(C(=O)c2cc([N+](=O)[O-])ccc2I)c2ccccc21 (stereo not shown) [AM1241] | produces antinociception | – | – | – | – | – | – |
| O=C(NCC12CC3CC(CC(C3)C1)C2)c1nn(C2CCCCC2)c2c1CCCCCC2 [Compound 2, 1-cyclohexyl-4,5,6,7,8,9-hexahydro-1H-cyclooctapyrazole-3-carboxylic acid (adamantan-1-ylmethyl)-amide] | – | 5.92 ± 1.15 | 6.88 ± 0.44 | 8.52 ± 1.08 | 5.11 ± 0.84 | 6.18 ± 0.91 | 14.41 ± 1.75 |
